US7659271B2, “Pyrimidine compound having dibenzylamine structure and medicament comprising the same” (Kowa Company, Ltd., priority 2007, dated 2010)
Marks after values point to notes of the source that are not given here.

Columns and labels:
CETP = biological target: T1, CETP (Homo sapiens, UniProt P11597); assay: Measurement of CETP inhibitory action in human plasma; format: biochemical; conditions: incubated with compound 37° C. 4 hours, Roar Biomedical CETP Activity kit, read-out: IC50 (concentration inhibiting the CETP activity by 50%)
T1 construct: The CETP activity in this plasma was measured with Cholesteryl Ester Transfer Protein Activity kit; from tissue; host or cells: human plasma
T1 sequence (P11597 18-493): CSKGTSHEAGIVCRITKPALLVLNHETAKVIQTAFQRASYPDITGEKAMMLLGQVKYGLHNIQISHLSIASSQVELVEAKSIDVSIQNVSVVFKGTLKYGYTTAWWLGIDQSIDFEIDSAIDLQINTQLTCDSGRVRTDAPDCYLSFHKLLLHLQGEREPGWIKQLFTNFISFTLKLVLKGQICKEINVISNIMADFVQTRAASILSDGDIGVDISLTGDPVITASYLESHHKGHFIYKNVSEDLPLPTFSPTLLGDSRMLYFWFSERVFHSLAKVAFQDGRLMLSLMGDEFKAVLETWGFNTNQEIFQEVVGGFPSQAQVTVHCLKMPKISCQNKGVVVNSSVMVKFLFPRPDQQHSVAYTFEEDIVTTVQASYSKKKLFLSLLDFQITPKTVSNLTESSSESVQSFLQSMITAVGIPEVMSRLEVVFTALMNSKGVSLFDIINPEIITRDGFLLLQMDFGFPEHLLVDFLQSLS
Protocol: A solution obtained by dissolving an exemplary compound in polyethylene glycol/N-methyl-2-pyrrolidone (vol/vol=1/1) was added to human plasma, and the mixture was incubated in an incubator at 37° C. for 4 hours. The CETP activity in this plasma was measured with Cholesteryl Ester Transfer Protein Activity kit (Roar Biomedical, catalog No.: RB-CETP). Specifically, to each well of a 96-well plate, 95 μL of a buffer (10 mM Tris, 150 mM NaCl, 2 mM EDTA, pH 7.4), 2 μL of Donor particle and 2 μL of Acceptor particle were added, 1 μL of the human plasma after the incubation was added to the mixture, and the mixture was incubated in an incubator at 37° C. for 2 hours. After completion of the incubation, fluorescence intensity (FLU) was measured with a fluorescence plate reader (excitation wavelength: 465 nm, emission wavelength: 535 nm). In accordance with the following equation 1, the CETP activity (% of control) was obtained for the compounds of the examples for two or more concentrations. CETP activity (% of control)=(Sample FLU−Blank FLU)×100/(Control FLU−Blank FLU) (Equation 1)
In the equation, the terms have the following meanings: […]
Blank FLU: Fluorescence intensity of sample not added with plasma
Control FLU: Fluorescence intensity of plasma not added with solution of compound
Sample FLU: Fluorescence intensity of plasma added with solution of compound
A value obtained by subtracting the value of the CETP activity from 100 was defined as the CETP inhibitory rate of each exemplary compound, and a concentration inhibiting the CETP activity by 50% (IC50) was calculated for each exemplary compound from the values of the CETP inhibitory rate at two or more concentrations.

normal hamsters = assay: Measurement of blood HDL cholesterol increasing action in normal hamsters; format: in vivo, male Syrian Hamsters; conditions: for Average HDL cholesterol level ± SD: plasma 2 hours after administration on day 7, n = 5; for HDL cholesterol increasing ratio: relative to control group
Source text: N-{1-[3,5-Bis(trifluoromethyl)phenyl]ethyl}-N-({2-[(cyclopentylmethyl)(ethyl)amino]-5-(trifluoromethyl)phenyl}methyl)-5-[2-(methylsulfonyl)ethoxy]pyrimidin-2-amine (Example 3), or 4(S)-[(3,5-bis-trifluoromethylbenzyl)methoxycarbonylamino]-2(R)-ethyl-6-trifluoromethyl-3,4-dihydro-2H-quinoline-1-carboxylic acid ethyl ester (Torcetrapib) disclosed in International Patent Publication WO2000/17164 was suspended in a 5% Tween 80 solution (control vehicle), and then repeatedly administered to normal hamsters (male Syrian Hamsters) by oral administration once a day over 7 days by using a metal catheter. Two hours after the administration on day 7 of the administration, blood was collected, and plasma was obtained. Plasma lipoproteins were analyzed by automatic measurement using a HPLC system based on the postlabeling method according to the method described in J. Lipid. Res., 43, pp. 805-814. Specifically, 15 μL of a plasma sample was diluted 10 times with PBS containing 1 mM EDTA, and then injected in a volume of 80 μL into a gel filtration column (Superose 6 column, column size: 10×300 mm, GE Healthcare Bioscience) connected to a HPLC system (liquid feeding unit: Shimadzu LC-20A System, Shimadzu). Separation was performed by using PBS containing 1 mM EDTA as a running buffer at a flow rate of 0.5 mL/min and at a column temperature of 40° C. The eluate from the column was mixed with a cholesterol measurement reagent (Cholesterol E-Test Wako, Wako Pure Chemical Industries) at a flow rate of 0.25 mL/min, and the reaction was allowed in a reaction coil (0.5 mm×15 m) at 40° C. during the feeding. Cholesterols in the eluate from the reaction coil were detected at a wavelength of 600 nm. An area ratio of the HDL fraction relative to the total area of the obtained cholesterols was calculated, and HDL cholesterol level was calculated by multiplying the total cholesterol level measured beforehand using Cholesterol E Test Wako by the area ratio of the HDL fraction. Five normal hamsters grouped beforehand on the basis of the total plasma cholesterol level were used for each of the control group (control vehicle administration group) and the compound administration groups (groups administered with the compound of Example 3 at 10 mg/kg, 30 mg/kg and 100 mg/kg, and Torcetrapib at 10 mg/kg and 100 mg/kg).
The symbols * and *** used in FIG. 1 and Table 3 indicate presence of significant difference at a risk ratio lower than 5% (p<0.05) and a risk ratio lower than 0.1% (p<0.001), respectively, in a multi-group comparison test (Dunnett's multiple comparison test) performed between the control group and each compound administration group. Further, increasing ratios of HDL cholesterol level in each group relative to the control group were calculated as HDL cholesterol increasing ratios in accordance with the following equation 2, and indicated in terms of %. HDL cholesterol increasing ratio (%)=[(Average HDL cholesterol level of each compound administration group−Average HDL cholesterol level of control group)/Average HDL cholesterol level of control group]×100 (Equation 2)

[1] = 10 mg/kg oral once a day over 7 days
[2] = 30 mg/kg oral once a day over 7 days
[3] = 100 mg/kg oral once a day over 7 days

Structure (SMILES) | IC50 (CETP) [nM] | Average HDL cholesterol level ± SD (normal hamsters; [1]) | HDL cholesterol increasing ratio (normal hamsters; [1]) [%] | Average HDL cholesterol level ± SD (normal hamsters; [2]) | HDL cholesterol increasing ratio (normal hamsters; [2]) [%] | Average HDL cholesterol level ± SD (normal hamsters; [3]) | HDL cholesterol increasing ratio (normal hamsters; [3]) [%]
CCN(CC1CCCC1)c1ccc(C(F)(F)F)cc1CN(c1ncc(OCCS(C)(=O)=O)cn1)C(C)c1cc(C(F)(F)F)cc(C(F)(F)F)c1 (centres unmarked) [Example 3, N-{1-[3,5-bis(trifluoromethyl)phenyl]ethyl}-N-({2-[(cyclopentylmethyl)(ethyl)amino]-5-(trifluoromethyl)phenyl}methyl)-5-[2-(methylsulfonyl)ethoxy]pyrimidin-2-amine] | 30 | 118.5 ± 7.6*** mg/dl | 37.1 | 124.4 ± 8.4*** mg/dl | 43.9 | 126.9 ± 13.2*** mg/dl | 46.8
CCOC(=O)N1c2ccc(C(F)(F)F)cc2[C@@H](N(Cc2cc(C(F)(F)F)cc(C(F)(F)F)c2)C(=O)OC)C[C@H]1CC [Torcetrapib, 4(S)-[(3,5-bis-trifluoromethylbenzyl)methoxycarbonylamino]-2(R)-ethyl-6-trifluoromethyl-3,4-dihydro-2H-quinoline-1-carboxylic acid ethyl ester, reference compound] | – | 90.6 ± 7.7 mg/dL | 4.8 | – | – | 113.0 ± 23.2* mg/dl | 30.7
